US20070049564A1 (Wyeth, priority 2005, published 2007)
In brackets after ≈: the same amount, converted by molar mass. Where two headings read alike, the source gives them in different places.

Experiments:
[1] = system: E. coli GC 2236; assay: MIC, broth microdilution; settings: Escherichia coli
[2] = system: E. coli GC 2231; assay: MIC, broth microdilution; settings: Escherichia coli
[3] = system: E. coli GC 2235; assay: MIC, broth microdilution; settings: Escherichia coli
[4] = system: E. coli GC 2233; assay: MIC, broth microdilution; settings: Escherichia coli
[5] = system: E. coli GC 2234; assay: MIC, broth microdilution; settings: Escherichia coli
Protocol: Antimicrobial susceptibility testing. The in vitro activities of the antibiotics are determined by the broth microdilution method as recommended by the National Committee for Clinical Laboratory Standards (NCCLS) (1). Mueller-Hinton II broth (MHBII)(BBL Cockeysville, Md.) is the medium employed in the testing procedures. Microtiter plates containing serial dilutions of each antimicrobial agent are inoculated with each organism to yield the appropriate density (10^5 CFU/ml) in a 100 μl final volume. The plates are incubated for 18-22 hours at 35° C. in ambient air.
Representative compounds were first incubated in mouse serum for an hour prior to the in vitro testing against a panel of selected gram-positive and gram-negative bacteria strains. All compounds were also pre-incubated in water for an hour prior to testing as control.

[6] = system: E. coli GC 2272; assay: MIC, broth microdilution; settings: Escherichia coli
[7] = system: E. coli GC 4560; assay: MIC, broth microdilution; settings: Escherichia coli
[8] = system: E. coli GC 6465; assay: MIC, broth microdilution; settings: Escherichia coli
[9] = system: E. coli GC 2203; assay: MIC, broth microdilution; settings: Escherichia coli
[10] = system: S. typhimurium GC 2172; assay: MIC, broth microdilution; settings: Salmonella enterica, TYPHIMURIUM
[11] = system: S. aureus GC 1131; assay: MIC, broth microdilution; settings: Staphylococcus aureus
[12] = system: S. aureus GC 6466; assay: MIC, broth microdilution; settings: Staphylococcus aureus
[13] = system: S. aureus GC 6467; assay: MIC, broth microdilution; settings: Staphylococcus aureus
[14] = system: S. aureus GC 1079; assay: MIC, broth microdilution; settings: Staphylococcus aureus
[15] = system: S. epidermidis GC 4935; assay: MIC, broth microdilution; settings: Staphylococcus epidermidis
[16] = system: E. faecalis GC 4555; assay: MIC, broth microdilution; settings: Enterococcus faecalis
[17] = system: E. faecalis GC 2267; assay: MIC, broth microdilution; settings: Enterococcus faecalis
[18] = system: E. faecium GC 4556; assay: MIC, broth microdilution; settings: Enterococcus faecium
[19] = system: S. pneumoniae* GC 4465; assay: MIC, broth microdilution; settings: Streptococcus pneumoniae
[20] = system: Staph.; assay: Range of MIC for Staph. strains, including MRSA; settings: Staphylococcus aureus
[21] = read-out: MINIMAL INHIBITORY CONCENTRATION MIC, Human Serum
[22] = read-out: MINIMAL INHIBITORY CONCENTRATION MIC, Mouse Serum
[23] = read-out: MINIMAL INHIBITORY CONCENTRATION MIC, Water

Q: How did the MIC ([1]; GC2236, read-out: MINIMAL INHIBITORY CONCENTRATION MIC, Human Serum) turn out when `Cc1cc(C)cc(C(=O)OCOC(=O)N(CC(=O)Nc2cc(N(C)C)c3c(c2O)C(=O)C2=C(O)[C@]4(O)C(=O)C(C(N)=O)=C(O)[C@@H](N(C)C)[C@@H]4C[C@@H]2C3)C(C)(C)C)c1` [Example 51] was run?
A: 32 µg/mL (≈ 40.4 µM)

Q: What about the MIC ([1]; GC2236, read-out: MINIMAL INHIBITORY CONCENTRATION MIC, Mouse Serum) of the same molecule?
A: 2 µg/mL (≈ 2.53 µM)

Q: What about the MIC ([1]; GC2236, read-out: MINIMAL INHIBITORY CONCENTRATION MIC, Water) of the same molecule?
A: > 64 µg/mL

Q: What about the MIC ([2]; GC2231, read-out: MINIMAL INHIBITORY CONCENTRATION MIC, Human Serum) of the same molecule?
A: 32 µg/mL (≈ 40.4 µM)

Q: What about the MIC ([2]; GC2231, read-out: MINIMAL INHIBITORY CONCENTRATION MIC, Mouse Serum) of the same molecule?
A: 2 µg/mL (≈ 2.53 µM)

Q: And the MIC ([2]; GC2231, read-out: MINIMAL INHIBITORY CONCENTRATION MIC, Water)?
A: > 64 µg/mL

Q: What about the MIC ([3]; GC2235, read-out: MINIMAL INHIBITORY CONCENTRATION MIC, Human Serum) of the same molecule?
A: 32 µg/mL (≈ 40.4 µM)

Q: And the MIC ([3]; GC2235, read-out: MINIMAL INHIBITORY CONCENTRATION MIC, Mouse Serum)?
A: 1 µg/mL (≈ 1.26 µM)

Q: And the MIC ([3]; GC2235, read-out: MINIMAL INHIBITORY CONCENTRATION MIC, Water)?
A: > 64 µg/mL

Q: And the MIC ([4]; GC2233, read-out: MINIMAL INHIBITORY CONCENTRATION MIC, Human Serum)?
A: 32 µg/mL (≈ 40.4 µM)

Q: And the MIC ([4]; GC2233, read-out: MINIMAL INHIBITORY CONCENTRATION MIC, Mouse Serum)?
A: 2 µg/mL (≈ 2.53 µM)

Q: What about the MIC ([4]; GC2233, read-out: MINIMAL INHIBITORY CONCENTRATION MIC, Water) of the same molecule?
A: > 64 µg/mL

Q: And the MIC ([5]; GC2234, read-out: MINIMAL INHIBITORY CONCENTRATION MIC, Human Serum)?
A: 32 µg/mL (≈ 40.4 µM)

Q: And the MIC ([5]; GC2234, read-out: MINIMAL INHIBITORY CONCENTRATION MIC, Mouse Serum)?
A: 1 µg/mL (≈ 1.26 µM)

Q: What about the MIC ([5]; GC2234, read-out: MINIMAL INHIBITORY CONCENTRATION MIC, Water) of the same molecule?
A: > 64 µg/mL

Q: What about the MIC ([6]; GC2272, read-out: MINIMAL INHIBITORY CONCENTRATION MIC, Human Serum) of the same molecule?
A: 32 µg/mL (≈ 40.4 µM)

Q: What about the MIC ([6]; GC2272, read-out: MINIMAL INHIBITORY CONCENTRATION MIC, Mouse Serum) of the same molecule?
A: 2 µg/mL (≈ 2.53 µM)

Q: What about the MIC ([6]; GC2272, read-out: MINIMAL INHIBITORY CONCENTRATION MIC, Water) of the same molecule?
A: > 64 µg/mL

Q: And the MIC ([7]; GC4560, read-out: MINIMAL INHIBITORY CONCENTRATION MIC, Human Serum)?
A: 8 µg/mL (≈ 10.1 µM)

Q: What about the MIC ([7]; GC4560, read-out: MINIMAL INHIBITORY CONCENTRATION MIC, Mouse Serum) of the same molecule?
A: 1 µg/mL (≈ 1.26 µM)

Q: And the MIC ([7]; GC4560, read-out: MINIMAL INHIBITORY CONCENTRATION MIC, Water)?
A: 32 µg/mL (≈ 40.4 µM)

Q: And the MIC ([8]; GC6465, read-out: MINIMAL INHIBITORY CONCENTRATION MIC, Human Serum)?
A: 32 µg/mL (≈ 40.4 µM)

Q: What about the MIC ([8]; GC6465, read-out: MINIMAL INHIBITORY CONCENTRATION MIC, Mouse Serum) of the same molecule?
A: 4 µg/mL (≈ 5.05 µM)

Q: And the MIC ([8]; GC6465, read-out: MINIMAL INHIBITORY CONCENTRATION MIC, Water)?
A: > 64 µg/mL

Q: And the MIC ([9]; GC2203, read-out: MINIMAL INHIBITORY CONCENTRATION MIC, Human Serum)?
A: 32 µg/mL (≈ 40.4 µM)

Q: What about the MIC ([9]; GC2203, read-out: MINIMAL INHIBITORY CONCENTRATION MIC, Mouse Serum) of the same molecule?
A: 2 µg/mL (≈ 2.53 µM)

Q: And the MIC ([9]; GC2203, read-out: MINIMAL INHIBITORY CONCENTRATION MIC, Water)?
A: > 64 µg/mL

Q: And the MIC [10, 21]?
A: 64 µg/mL (≈ 80.8 µM)

Q: What about the MIC [10, 22] of the same molecule?
A: 8 µg/mL (≈ 10.1 µM)

Q: What about the MIC [10, 23] of the same molecule?
A: > 64 µg/mL

Q: And the MIC ([11]; GC1131, read-out: MINIMAL INHIBITORY CONCENTRATION MIC, Human Serum)?
A: 0.5 µg/mL (≈ 0.631 µM)

Q: And the MIC ([11]; GC1131, read-out: MINIMAL INHIBITORY CONCENTRATION MIC, Mouse Serum)?
A: 0.5 µg/mL (≈ 0.631 µM)

Q: And the MIC ([11]; GC1131, read-out: MINIMAL INHIBITORY CONCENTRATION MIC, Water)?
A: 1 µg/mL (≈ 1.26 µM)

Q: And the MIC ([12]; GC6466, read-out: MINIMAL INHIBITORY CONCENTRATION MIC, Human Serum)?
A: 0.25 µg/mL (≈ 0.316 µM)

Q: And the MIC ([12]; GC6466, read-out: MINIMAL INHIBITORY CONCENTRATION MIC, Mouse Serum)?
A: 0.25 µg/mL (≈ 0.316 µM)

Q: What about the MIC ([12]; GC6466, read-out: MINIMAL INHIBITORY CONCENTRATION MIC, Water) of the same molecule?
A: 1 µg/mL (≈ 1.26 µM)

Q: And the MIC ([13]; GC6467, read-out: MINIMAL INHIBITORY CONCENTRATION MIC, Human Serum)?
A: 1 µg/mL (≈ 1.26 µM)

Q: And the MIC ([13]; GC6467, read-out: MINIMAL INHIBITORY CONCENTRATION MIC, Mouse Serum)?
A: 0.5 µg/mL (≈ 0.631 µM)

Q: And the MIC ([13]; GC6467, read-out: MINIMAL INHIBITORY CONCENTRATION MIC, Water)?
A: 2 µg/mL (≈ 2.53 µM)

Q: What about the MIC ([14]; GC1079, read-out: MINIMAL INHIBITORY CONCENTRATION MIC, Human Serum) of the same molecule?
A: 1 µg/mL (≈ 1.26 µM)

Q: And the MIC ([14]; GC1079, read-out: MINIMAL INHIBITORY CONCENTRATION MIC, Mouse Serum)?
A: 0.5 µg/mL (≈ 0.631 µM)

Q: And the MIC ([14]; GC1079, read-out: MINIMAL INHIBITORY CONCENTRATION MIC, Water)?
A: 2 µg/mL (≈ 2.53 µM)

Q: What about the MIC ([15]; GC4935, read-out: MINIMAL INHIBITORY CONCENTRATION MIC, Human Serum) of the same molecule?
A: 2 µg/mL (≈ 2.53 µM)

Q: What about the MIC ([15]; GC4935, read-out: MINIMAL INHIBITORY CONCENTRATION MIC, Mouse Serum) of the same molecule?
A: 2 µg/mL (≈ 2.53 µM)

Q: And the MIC ([15]; GC4935, read-out: MINIMAL INHIBITORY CONCENTRATION MIC, Water)?
A: 4 µg/mL (≈ 5.05 µM)

Q: What about the MIC ([16]; GC4555, read-out: MINIMAL INHIBITORY CONCENTRATION MIC, Human Serum) of the same molecule?
A: 8 µg/mL (≈ 10.1 µM)

Q: And the MIC ([16]; GC4555, read-out: MINIMAL INHIBITORY CONCENTRATION MIC, Mouse Serum)?
A: 1 µg/mL (≈ 1.26 µM)

Q: What about the MIC ([16]; GC4555, read-out: MINIMAL INHIBITORY CONCENTRATION MIC, Water) of the same molecule?
A: 16 µg/mL (≈ 20.2 µM)

Q: And the MIC ([17]; GC2267, read-out: MINIMAL INHIBITORY CONCENTRATION MIC, Human Serum)?
A: 4 µg/mL (≈ 5.05 µM)

Q: And the MIC ([17]; GC2267, read-out: MINIMAL INHIBITORY CONCENTRATION MIC, Mouse Serum)?
A: 2 µg/mL (≈ 2.53 µM)

Q: What about the MIC ([17]; GC2267, read-out: MINIMAL INHIBITORY CONCENTRATION MIC, Water) of the same molecule?
A: 16 µg/mL (≈ 20.2 µM)

Q: And the MIC ([18]; GC4556, read-out: MINIMAL INHIBITORY CONCENTRATION MIC, Human Serum)?
A: 8 µg/mL (≈ 10.1 µM)

Q: What about the MIC ([18]; GC4556, read-out: MINIMAL INHIBITORY CONCENTRATION MIC, Mouse Serum) of the same molecule?
A: 2 µg/mL (≈ 2.53 µM)

Q: What about the MIC ([18]; GC4556, read-out: MINIMAL INHIBITORY CONCENTRATION MIC, Water) of the same molecule?
A: 8 µg/mL (≈ 10.1 µM)

Q: And the MIC [19, 21]?
A: 2 µg/mL (≈ 2.53 µM)

Q: And the MIC [19, 22]?
A: 0.5 µg/mL (≈ 0.631 µM)

Q: What about the MIC [19, 23] of the same molecule?
A: 1 µg/mL (≈ 1.26 µM)

Q: What about the MIC ([20]; MRSA, read-out: Range of MIC, Staph (Mouse Serum)) of the same molecule?
A: 0.25 to 2 µg/mL (≈ 0.316 to 2.53 µM)

Q: What about the MIC ([20]; MRSA, read-out: Range of MIC, Staph (Water)) of the same molecule?
A: 1 to 4 µg/mL (≈ 1.26 to 5.05 µM)

Q: What about the MIC ([20]; read-out: Minimum inhibitory concentration (MIC), Staph (Human Serum)) of the same molecule?
A: 0.25 to 2 µg/mL (≈ 0.316 to 2.53 µM)

Q: And the MIC ([20]; read-out: Minimum inhibitory concentration (MIC), Staph (Water))?
A: 1 to 4 µg/mL (≈ 1.26 to 5.05 µM)
